Reference: patent publication US20180199572A1, “Herbicidal Composition Comprising Cinmethylin and Metolachlor or S-Metolachlor” (BASF Agro B.V., priority 2015, published 2018)

What was measured:
Assay in all cases: Greenhouse pre-emergence herbicidal activity
Assay type in all cases: in vivo
Conditions in all cases: 20 DAT
[1] = tested on: Setaria viridis (SETVI)
[2] = tested on: Chenopodium album (CHEAL)
[3] = tested on: Alopecurus myosuroides (ALOMY)
[4] = tested on: Abutilon theophrasti (ABUTH)
[5] = tested on: Lolium multiflorum (LOLMU)
[6] = tested on: Stellaria media (STEME)
[7] = tested on: Anthemis arvensis (ANTAR)
[8] = tested on: Polygonum convolvulus (POLCO)
[9] = tested on: Avena fatua (AVEFA)
[10] = solo herbicide A, use rate 31.25 g ai/ha
[11] = solo herbicide A, use rate 62.5 g ai/ha
[12] = solo herbicide A, use rate 125 g ai/ha
[13] = solo S-metolachlor, use rate 62.5 g ai/ha
[14] = solo S-metolachlor, use rate 125 g ai/ha
[15] = solo S-metolachlor, use rate 250 g ai/ha

Compound: (±)-2-exo-(2-Methylbenzyloxy)-1-methyl-4-isopropyl-7-oxabicyclo[2.2.1]heptane [herbicide A]
- herbicidal activity (%) [1, 10]: 90%
- herbicidal activity (%) [2, 10]: 40%
- herbicidal activity (%) [3, 11]: 98%
- herbicidal activity (%) [3, 12]: 98%
- herbicidal activity (%) [4, 10]: 30%
- herbicidal activity (%) [4, 11]: 60%
- herbicidal activity (%) [5, 12]: 85%
- herbicidal activity (%) [6, 11]: 30%
- herbicidal activity (%) [6, 12]: 40%
- herbicidal activity (%) [7, 10]: 0%
- herbicidal activity (%) [7, 11]: 0%
- herbicidal activity (%) [7, 12]: 0%
- herbicidal activity (%) [8, 12]: 0%
- herbicidal activity (%) ([8]; solo herbicide A, use rate 250 g ai/ha): 15%
- herbicidal activity (%) [9, 12]: 25%

Compound: CCc1cccc(C)c1N(C(=O)CCl)[C@@H](C)COC [S-metolachlor]
- herbicidal activity (%) [1, 13]: 80%
- herbicidal activity (%) [2, 13]: 0%
- herbicidal activity (%) [3, 14]: 40%
- herbicidal activity (%) [3, 15]: 50%
- herbicidal activity (%) [4, 13]: 0%
- herbicidal activity (%) [4, 14]: 0%
- herbicidal activity (%) [5, 15]: 60%
- herbicidal activity (%) [6, 14]: 35%
- herbicidal activity (%) [6, 15]: 65%
- herbicidal activity (%) [7, 13]: 0%
- herbicidal activity (%) [7, 14]: 0%
- herbicidal activity (%) [7, 15]: 25%
- herbicidal activity (%) [8, 15]: 25%
- herbicidal activity (%) ([8]; solo S-metolachlor, use rate 500 g ai/ha): 20%
- herbicidal activity (%) [9, 15]: 25%
